Data as given in article doi:10.1101/2021.03.24.436736v2 (biorxiv, 2023).

Key:
PxRDL2 [1] = target: T1, PxRDL2 (Plutella xylostella, UniProt C0L7I7); experiment: two-electrode voltage clamp, Xenopus laevis oocytes; format: cell-based
T1 sequence (C0L7I7 30-520): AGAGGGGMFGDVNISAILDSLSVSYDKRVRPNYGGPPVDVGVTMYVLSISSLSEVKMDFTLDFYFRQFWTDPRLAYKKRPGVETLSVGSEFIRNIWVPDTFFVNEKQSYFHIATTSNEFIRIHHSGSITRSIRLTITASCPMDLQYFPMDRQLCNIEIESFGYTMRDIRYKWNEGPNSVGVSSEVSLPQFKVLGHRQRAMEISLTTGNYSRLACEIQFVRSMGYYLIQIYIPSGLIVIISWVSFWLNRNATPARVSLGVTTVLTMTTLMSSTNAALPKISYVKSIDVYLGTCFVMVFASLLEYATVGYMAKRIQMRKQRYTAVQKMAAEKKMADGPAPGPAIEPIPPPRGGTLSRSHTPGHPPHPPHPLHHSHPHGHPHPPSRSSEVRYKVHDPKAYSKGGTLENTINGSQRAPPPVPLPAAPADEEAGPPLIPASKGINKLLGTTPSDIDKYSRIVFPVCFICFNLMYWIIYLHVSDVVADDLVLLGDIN

PxRDL1 = target: T2, PxRDL1 (Plutella xylostella, UniProt C0L7I5); experiment: as above; format: cell-based
T2 sequence (C0L7I5 26-485): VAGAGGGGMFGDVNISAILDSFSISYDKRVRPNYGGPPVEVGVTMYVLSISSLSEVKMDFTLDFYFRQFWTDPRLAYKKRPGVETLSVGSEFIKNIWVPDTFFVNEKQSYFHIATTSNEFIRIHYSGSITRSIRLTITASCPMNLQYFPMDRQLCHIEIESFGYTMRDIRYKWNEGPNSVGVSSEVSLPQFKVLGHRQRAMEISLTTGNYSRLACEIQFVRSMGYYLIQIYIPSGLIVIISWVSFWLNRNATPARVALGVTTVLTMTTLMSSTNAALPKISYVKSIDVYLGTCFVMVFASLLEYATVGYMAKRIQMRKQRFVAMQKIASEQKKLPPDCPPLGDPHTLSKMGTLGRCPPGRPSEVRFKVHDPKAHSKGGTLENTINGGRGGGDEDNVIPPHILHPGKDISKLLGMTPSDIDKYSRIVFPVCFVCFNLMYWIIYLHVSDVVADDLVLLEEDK

PxRDL2 [2] = target: T1, PxRDL2; experiment: cell-based; parameters: species or system Xenopus laevis oocytes

IC50 (PxRDL2 [2])	SMILES	IC50 (PxRDL2 [1])	IC50 (PxRDL1)
–	CON=CNC(=O)c1ccc(C2=NOC(c3cc(Cl)cc(Cl)c3)(C(F)(F)F)C2)cc1C (stereo not drawn) [fluxametamide, 4-[5-(3,5-dichlorophenyl)-5-(trifluoromethyl)-4H-1,2-oxazol-3-yl]-N-[(E)-methoxyiminomethyl]-2-methylbenzamide]	17 nM	20 nM
–	Cc1cc(C2=NOC(c3cc(Cl)cc(Cl)c3)(C(F)(F)F)C2)ccc1C(=O)NCC(=O)NCC(F)(F)F (stereo not drawn) [fluralaner, 4-[5-(3,5-dichlorophenyl)-5-(trifluoromethyl)-4H-1,2-oxazol-3-yl]-2-methyl-N-[2-oxo-2-(2,2,2-trifluoroethylamino)ethyl]benzamide]	18 nM	10 nM
> 30000 nM	CCOC(=O)C1(C(=O)OCC)Nc2c([S+]([O-])C(F)(F)F)c(C#N)nn2-c2c(Cl)cc(C(F)(F)F)cc21 (stereo not drawn) [4a, diethyl 9-chloro-2-cyano-7-(trifluoromethyl)-3-((trifluoromethyl)sulfinyl)pyrazolo[1,5-α]quin azoline-5,5(4H)-dicarboxylate]	–	2020 nM
